Experimental data published in patent US20110071150A1 (priority 2009, published 2011).

System: Jurkat IL-2 Production
Assay: Jurkat IL-2 Production Assay
Type: cell-based
Conditions: Homo sapiens, Jurkat cell (ATCC), 18-20 h incubation, PHA 5 μg/mL with 1% FBS, or PMA/Ionomycin with 30% FBS (table does not say which)
How it was run: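 Jurkat cells were exposed to compound (0.25% DMSO final) for 10 min, then stimulated for 18–20 h at 37 °C. The 1% FBS condition used 5 μg/mL PHA; the high-serum condition (30% FBS) used 50 ng/mL PMA plus 500 ng/mL ionomycin. IC50 was derived from IL-2 production.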

Cc1sc(-c2cnccn2)nc1-c1ccc2[nH]c(-c3c(F)cccc3Cl)cc2c1 [Example 176, 2-(2-Chloro-6-fluoro-phenyl)-5-(5-methyl-2-pyrazin-2-yl-thiazol-4-yl)-1H-indole]
IC50: 14 nM

Cc1cc(C#N)cnc1-c1ccc2[nH]c(-c3c(F)cccc3Cl)cc2c1 [Example 161, 6-(2-(2-chloro-6-fluorophenyl)-1H-indol-5-yl)-5-methylnicotinonitrile]
IC50: 99 nM

COc1ccc(-c2ccc3[nH]c(-c4c(F)cccc4F)cc3c2)c(Cl)c1 [Example 98, 5-(2-Chloro-4-methoxy-phenyl)-2-(2,6-difluoro-phenyl)-1H-indole]
IC50: 279 nM

CNC(=O)c1ccc(-c2ccc3[nH]c(-c4ccccc4Cl)cc3c2)c(C)c1 [Example 127, 4-[2-(2-Chloro-phenyl)-1H-indol-5-yl]-3,N-dimethyl-benzamide]
IC50: 991 nM

Cn1nc(C(F)(F)F)cc1-c1ccc2[nH]c(-c3ccc(F)cc3Cl)cc2c1 [Example 35, 2-(2-Chloro-4-fluoro-phenyl)-5-(2-methyl-5-trifluoromethyl-2H-pyrazol-3-yl)-1H-indole]
IC50: 116 nM

Cc1ccc(-c2nc(-c3ccc4[nH]c(-c5c(F)cccc5Cl)cc4c3)c(C)s2)cn1 [Example 178, 2-(2-Chloro-6-fluoro-phenyl)-5-[5-methyl-2-(6-methyl-pyridin-3-yl)-thiazol-4-yl]-1H-indole]
IC50: 59 nM

COC(=O)c1ccc(-c2cc3cc(-c4cc(C(F)(F)F)nn4C)ccc3[nH]2)c(C)c1 [Example 39, 3-Methyl-4-[5-(2-methyl-5-trifluoromethyl-2H-pyrazol-3-yl)-1H-indol-2-yl]-benzoic acid methyl ester]
IC50: 148 nM

CCn1nc(-c2cnccn2)cc1-c1ccc2[nH]c(-c3c(F)cccc3F)cc2c1 [Example 204, 2-(2,6-difluorophenyl)-5-(1-ethyl-3-(pyrazin-2-yl)-1H-pyrazol-5-yl)-1H-indole]
IC50: 63 nM

Cc1sc(-c2ccccn2)nc1-c1ccc2[nH]c(-c3cc(F)ccc3Cl)cc2c1 [Example 58, 2-(2-Chloro-5-fluoro-phenyl)-5-(5-methyl-2-pyridin-2-yl-thiazol-4-yl)-1H-indole]
IC50: 689 nM

COc1ccc(-c2ccc3[nH]c(-c4c(F)cccc4F)cc3c2)c(C)n1 [Example 101, 2-(2,6-Difluoro-phenyl)-5-(6-methoxy-2-methyl-pyridin-3-yl)-1H-indole]
IC50: 593 nM

Cc1cnccc1-c1cc2cc(-c3nc(-c4ccccn4)sc3C)ccc2[nH]1 [Example 10, 2-(3-Methyl-pyridin-4-yl)-5-(5-methyl-2-pyridin-2-yl-thiazol-4-yl)-1H-indole]
IC50: 190 nM

Cn1nc(C(F)(F)F)cc1-c1ccc2[nH]c(-c3ccncc3Cl)cc2c1 [Example 36, 2-(3-Chloro-pyridin-4-yl)-5-(2-methyl-5-trifluoromethyl-2H-pyrazol-3-yl)-1H-indole]
IC50: 131 nM

Cc1cc(C#N)ccc1-c1ccc2[nH]c(-c3cccc(C#N)c3F)cc2c1 [Example 134, 4-[2-(2-Fluoro-3-cyano-phenyl)-1H-indol-5-yl]-3-methyl-benzonitrile]
IC50: 163 nM

Cc1cc(S(=O)(=O)N(C)C)ccc1-c1ccc2[nH]c(-c3c(F)cccc3F)c(C)c2c1 [Example 228, 4-[2-(2,6-Difluoro-phenyl)-3-methyl-1H-indol-5-yl]-3,N,N-trimethyl-benzenesulfonamide]
IC50: 115 nM

Cc1cc(C#N)ccc1-c1ccc2[nH]c(-c3ccccc3F)cc2c1 [Example 136, 4-(2-(2-fluorophenyl)-1H-indol-5-yl)-3-methylbenzonitrile]
IC50: 370 nM

Cc1sc(-c2ccncc2)nc1-c1ccc2[nH]c(-c3c(F)cccc3F)cc2c1 [Example 21, 2-(2,6-Difluoro-phenyl)-5-(5-methyl-2-pyridin-4-yl-thiazol-4-yl)-1H-indole]
IC50: 90 nM

Cc1cc(S(C)(=O)=O)ncc1-c1ccc2[nH]c(-c3c(F)cccc3Cl)cc2c1 [Example 173, 2-(2-Chloro-6-fluoro-phenyl)-5-(6-methanesulfonyl-4-methyl-pyridin-3-yl)-1H-indole]
IC50: 12 nM
